Broadly, the IC50 is the concentration that gives 50% inhibition. A low value points to inhibition by little substance.

For data set [1] the following is noted: pH 7.4.
Data set [2] can be described thus: Catalysis of ascorbic acid oxidation. Format: biochemical. The note with it: air or peroxide, physiological conditions.
A further data set has as its system KB-CP.5 cancer cells. Put plainly: Apoptosis of cisplatin-resistant KB-CP.5 cancer cells. In kind it is cell-based, human. As for the experimental part: Apoptosis was measured after cells treated with VPOA-6 at different concentrations for 48 hr. […] NAC rescues the VPOA-6-induced apoptosis in KB-CP.5 cancer cells. Cancer cells were cultured with VPOA-6 (5 or 10 μM) with or without ROS scavenging agent NAC (3 mM) for 48 hr before apoptosis measurement.

The test system of data set [3] is cancer cells. Put plainly: Uptake into living cells by fluorescent labeling. In kind it is cell-based. Conditions: 1 μM. As for the experimental part: (§1) One aspect of selectivity is the efficacy ratio of a therapeutic agent for normal cells versus cancer cells. In sharp contrast to cancer cells, human embryonic kidney HEK 293, human lung MRC-5, and human bronchus BEAS-2B normal cells are viable at VPOA-6 concentrations up to 20 μM. […] A fluorescent-labeling technique successfully images the uptake of VPOA-6 into living cells showing that cancer cells readily internalize this nanodrug within 8 hr even at very low concentrations (1 μM).

A short description of data set [4]: Catalysis of glutathione oxidation monitored by 1H NMR. In kind it is biochemical. As for the experimental part: GSH (10 mM) in deuterated PBS (1×, pH 7.4) solution at 37° C. in a cell culture incubator. The arrow on the top spectrum indicates the chemical shift of a dominant peak (absent here) in the oxidation product (GSSG).
Vanadium-containing compounds have extensive redox properties and consequently catalyze several organic substrate oxidations via free radical mechanisms. VPOA-6 is a highly efficient catalyst for oxidizing glutathione (GSH), the primary intracellular antioxidant, through both aerobic oxidation and peroxidation under physiologically relevant conditions. Glutathione is the most abundant cellular reducing metabolite with concentrations in the millimolar range and is regarded as the primary mechanism for protecting cells against oxidative stress during proliferation and growth. In order to evaluate the inherent catalytic capability of VPOA-6, proton nuclear magnetic resonance (1H NMR) spectroscopy was used to monitor the in vitro oxidation of GSH. Two reactions were designed for this purpose, GSH reacting with air (O2) and, separately, GSH reacting with peroxide (H2O2) in PBS buffer (1×pH 7.4) at 37° C.

The nature of data set [5]: Side effects in treated tumor-bearing mice. Format: in vivo. The source says: Mice were then euthanized, vital organs collected and processed for histological examination.
Data set [6] relates to NCI-H460, large cell lung carcinoma. Put plainly: Cytotoxicity, cell counting kit-8, NCI-H460. Format: cell-based, human. The note with it: NCI-H460 cells, 72 h. As for the experimental part: (§2) A variety of cancer or normal cells were grown in 96-well plates and treated with VPOA-6 at 0-20 μM for 72 h. Cytotoxicity was measured using cell counting kit-8.
(§3) Cell lines used in this study are as follows.

Data set [7] deals with D556, medulloblastoma cell. As to the kind of experiment: Cytotoxicity, cell counting kit-8, D556. Format: cell-based. The note with it: D556 cells, 72 h. As for the experimental part: as §2, §3
On the technique in general: Formazan colour is commonly taken as a measure of viable cells.

In data set [8] the test system is human embryonic kidney HEK 293. Format: cell-based. As for the experimental part: as §2
One aspect of selectivity is the efficacy ratio of a therapeutic agent for normal cells versus cancer cells.
as §3

Data set [9] relates to normal proliferating cells. As to the kind of experiment: Selective killing of cancer versus normal proliferating cells. Conditions: for activity and selectivity, KB-3-1 versus normal cells: simple vanadium compounds. Format: cell-based. As for the experimental part: as §2
The effect of VPOA-6 on the viability of a spectrum of cancer cells and normal proliferating cells were then evaluated. […] In particular, four major types of human cancer cell lines, A549 (lung), U87 (brain), SKOV-3 (ovarian), and KB-3-1 (cervical), are highly sensitive to VPOA-6 with IC50 values below 5 μM.

In data set [10] the test system is SKOV-3, ovarian carcinoma cell. Put plainly: Cytotoxicity, cell counting kit-8, SKOV-3. Format: cell-based, human. The note with it: SKOV-3 cells, 72 h. As for the experimental part:
as §2, §3

A further data set has as its system KB-3-1 cells. As to the kind of experiment: Total cellular ROS by flow cytometry, KB-3-1. In kind it is cell-based, human. The text has this: Transition-metal-based polyoxoanions sometimes have the ability to catalyze a range of oxidation reactions and to generate the free radicals under mild conditions. Although it is not intended that embodiments of this disclosure be limited by any particular mechanism, it is quite reasonable that VPOA-6 may enhance the production or accumulation of reactive oxygen species (ROS) in cancer cells leading to oxidative stress and cell death. To test this hypothesis, the levels of total cellular ROS (H2O2) were measured using flow cytometry. […] To assess the functional importance of ROS induction in the VPOA-6-treated KB-3-1 cells, cells were co-treated with both VPOA-6 (5 and 10 μM) and a ROS scavenger N-acetyl-L-cysteine (NAC, 3 mM).
Background: Flow cytometry measures light scatter and fluorescence of single cells or particles in a stream.

Data set [11] deals with KB-3-1 human cervical carcinoma. Put plainly: KB-3-1 xenograft mouse model, antitumor efficacy. Conditions: for tumor inhibition effect: 16 μmol/kg i.p. Format: in vivo, mice. The text has this: In vivo antitumor effect of VPOA-6. Inhibition of human head-and-neck KB-3-1 tumor growth by VPOA-6 treatment in tumor-bearing mice. […] Mice were then euthanized, vital organs collected and processed for histological examination.
Human cervical cancer is one of the most aggressive forms of human cancer. […] Specifically when using i.p. administration, the tumor volume of VPOA-6-treated group at a dose of 40 μmol/kg was less than 40% of that control group at the end point. […] Evaluation of VPOA-6 side effects. A central issue in developing new chemotherapeutics is to minimize the side effects associated with the non-specific interaction of the drugs with normal organ tissues.

In a further data set the test system is KB-3-1 cancer cell line. Put plainly: Cytotoxicity, cell counting kit-8, KB-3-1. In kind it is cell-based, human. The note with it: KB-3-1 cells, 72 h. As for the experimental part: as §2
The effective catalytic oxidation of cellular antioxidants by VPOA-6, led to an assessment of the viability of both cancer and normal cell lines in the presence of VPOA-6. Four VPOA analogues (FIG. 1B) for selectivity of VPOA-6 in killing cancer cells by cytotoxicity towards the fast-growing KB-3-1 cancer cell line.
as §3

In data set [12] the test system is OVCAR-3, ovarian carcinoma. Put plainly: Cytotoxicity, cell counting kit-8, OVCAR-3. Format: cell-based, human. The note with it: OVCAR-3 cells, 72 h. As for the experimental part: as §2, §3
Data set [13] has as its system KB-8-5, multi-drug resistant cervical carcinoma cell. As to the kind of experiment: Cytotoxicity, cell counting kit-8, KB-8-5. Conditions: KB-8-5 cells, 72 h. In kind it is cell-based, human. As for the experimental part: as §2
(§4) The high incidence of drug resistance is a major challenge in treatment of relapsed and refractory cancers. […] The resistance of tumor cells to platinum-based chemotherapeutics is known to be associated with increased GSH levels; whereas cancer cells with high GSH levels are frequently more sensitive to drugs that affect GSH43.
as §3

For data set [14], the system named is cancer cells. Put plainly: TUNEL and Annexin V-PE staining assays. Format: cell-based. The note with it: normal proliferating cells remain alive. As for the experimental part: as §1
A further data set concerns KB-CP.5 cancer cell. As to the kind of experiment: ROS in drug-resistant KB-CP.5 cells. Format: cell-based, human.
Data set [15] has as its system KB-CP.5, cisplatin-resistant cervical carcinoma cell. Put plainly: Cytotoxicity, cell counting kit-8, KB-CP.5. In kind it is cell-based, human. As for the experimental part:
as §2, §4, §3

The next data set concerns KB-3-1 cancer cells. Put plainly: Apoptosis of KB-3-1 cancer cells. In kind it is cell-based, human. As for the experimental part: Apoptosis was measured after cancer cells were treated with the drug for 48 hr. […] Cancer cells were cultured with VPOA-6 (5 or 10 μM) with or without NAC (3 mM) for 48 hr before apoptosis measurement.
Data set [16] has as its system cancer cells.

Where “and” joins values, the source holds several entries; their conditions need not be identical. Equal values may be shown once. Entries after “also recorded” stand apart in the source; their conditions may differ. Bounds are passed on as bounds.

Consider [V6O13{(OCH2)3CNH3}2] [VPOA-6], for which, in data set [1], the stability entry is reported as “stable”. Moreover, the “catalysis of ascorbic acid oxidation” value in data set [2] is given as “efficiently catalyzes ascorbic acid oxidation”. Further, the apoptosis result is recorded as “remarkable apoptosis” with KB-CP.5 cancer cells (KB-CP.5) and “Dose-dependent apoptosis” with KB-3-1 cancer cells (KB-3-1, 48 hr). The “time to internalization by cancer cells” value in the data set on cancer cells [3] was at most 8 h. Besides, in [4] (H2O2, PBS pH 7.4, 37° C., after 30 minutes), the “product of GSH oxidation” value was “over-oxidized product, GS(═O)SG”. In [4] (air, GSH 10 mM, PBS pH 7.4, 37° C.), the “time for conversion of GSH to GSSG” value was at most 30 min. Further, the nephrotoxicity entry in data set [5] (mouse, in vivo) is “not observed”. Also, the “ROS and apoptosis in normal cells” value with normal cells is reported as “ROS increase but did not show obvious apoptosis”. Also, the IC50 was 8.69 ± 0.91 µM in data set [6]; 7.36 ± 0.54 µM in data set [7]; 3.12 ± 0.05 µM in [10]; 3.45 µM and < 5 µM in the data set with KB-3-1 cancer cell line; 10.8 ± 0.49 µM in data set [12]; 3.7 µM in [13]. Further, the IC50 in data set [15] (KB-CP.5 cells, 72 h) was 5.53 µM. The “toxicity in cell viability studies” value in data set [8] is “much less so”. Further, the “selective killing: cytotoxicity in cancer versus normal proliferating cells” value in [9] (0-20 μM, 72 h) was “no cytotoxicity in normal proliferating cells; also recorded: induces cell death in cancer cells (Tumor) but not in normal proliferating cells (Normal)”. The ROS levels entry was “significant surge in ROS levels” with KB-3-1 cells (KB-3-1, 5 and 10 μM, versus non-treated cells); “dramatic ROS increase” with KB-CP.5 cancer cell. In data set [11] (weekly for 24 days), the tumor inhibition effect result is reported as “clearly demonstrated the antitumor effect”. Also, in data set [11] (40 μmol/kg i.p., weekly for 24 days), the “tumor volume relative to control group at the end point” value is listed as “less than 40%”. Also, the “tumor growth inhibition, overall” value in data set [11] (i.p. or i.v., KB-3-1 xenografted mice) was “significantly inhibits growth; also recorded: quite effective”. In addition, the tumor inhibition result in data set [11] (i.v. administration) is “more significant tumor inhibition”. Moreover, the “apoptosis by TUNEL and Annexin V-PE staining” value with cancer cells [14] is “dramatic apoptosis of the cancer cells”.
Regarding `OO` [hydrogen peroxide], the “interaction with VPOA-6 in killing cancer cells” value in the data set on cancer cells [16] is recorded as “acted synergistically with VPOA-6”.
For `[O]=[V](=[O])[O][V](=[O])=[O]` [V2O5], the “activity and selectivity, KB-3-1 versus normal cells” value in [9] was “active but nonselective”.
Consider [V6O13{(OCH2)3CCH2OH}2] [VPOA-OH], for which half-maximal inhibition in the data set on KB-3-1 cancer cell line (IC50) required 21 ± 1.47 µM.
For `N.N.[Cl][Pt][Cl]` [cisplatin, reference compound], the mortality entry in data set [5] (increased dosages) is “widespread death”. The “health and body weight of treated mice” value in data set [5] (treatment period) was “deteriorated health and severe body weight loss”. Moreover, the IC50 is 4.4 µM in data set [10] and 2.8 µM with KB-3-1 cancer cell line. Moreover, the tumor inhibition effect result in [11] (weekly for 24 days) was “did not exhibit any tumor inhibition effect”. Further, the “resistance of KB-CP.5 compared to parental KB-3-1” value in [15] (KB-CP.5 versus KB-3-1) is given as “ca. 40 fold”.
In the data set on KB-3-1 cancer cell line, [V6O13{(OCH2)3CCH3}2] [VPOA-CH3] showed a half-maximal inhibitory concentration (IC50) of 16.21 ± 0.08 µM.
The same measure, in the same setting: the value for [V6O13{(OCH2)3CNO2}2] [VPOA-NO2] was 13.7 ± 0.15 µM.
Regarding `CC(=O)N[C@@H](CS)C(=O)O` [NAC, N-acetyl-L-cysteine, reference compound], the “effect of NAC on VPOA-6-induced apoptosis” value in the data set on KB-CP.5 cancer cells (KB-CP.5, VPOA-6 5 or 10 μM, NAC 3 mM, 48 hr) was “rescues”; in the data set with KB-3-1 cancer cells (KB-3-1, VPOA-6 5 or 10 μM, NAC 3 mM, 48 hr), “rescues”. Further, in the data set with KB-3-1 cells (KB-3-1, VPOA-6 5 and 10 μM, NAC 3 mM), the “effect of NAC on ROS and cell killing by VPOA-6” value is “reduces ROS and the cell killing by VPOA-6”.
`[Na+].[Na+].[Na+].[O]=[V]([O-])([O-])[O-]` [Na3VO4]: in data set [9], the “activity and selectivity, KB-3-1 versus normal cells” value was “active but nonselective”.
The same measure, in the same setting: the value for `[Na+].[O]=[V](=[O])[O-]` [NaVO3] was “active but nonselective”.
Turning to `CCCC[N+](CCCC)(CCCC)CCCC` [TBA Cl, reference compound], the IC50 in the data set on KB-3-1 cancer cell line worked out at 289 ± 12 µM.

The values above are taken from US12257225B2, “Polyoxometalate complexes and pharmaceutical compositions” (Emory University, priority 2016, dated 2025).
